Tests used:
Test in all cases: relative viability (nuclei count vs DMSO), 5 days (fraction); higher = more cells survive
[1] = tested on: 201T
In short: (§1)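 For relative viability, nuclei counts in treated wells were divided by those in vehicle wells. Lung cancer cell lines had been pin-tool dosed in 1536-well plates the day after seeding and cultured for 5 days, then fixed and stained in one step (final 0.05% Triton X-100, 1% formaldehyde, 1 ug/ml Hoechst) and imaged at 4×. Doses were one drug alone or a fixed anchor-drug dose plus five library-drug doses (not always all listed) in √10 steps, and values are duplicate-plate medians.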

[2] = tested on: A-427
In short: as §1

[3] = tested on: ABC-1
In short: as §1

[4] = tested on: BEN
In short: as §1

[5] = tested on: CAL-12T
In short: as §1

[6] = tested on: H3255
In short: as §1

[7] = tested on: LC-2-ad
In short: as §1

[8] = tested on: LCLC-97TM1
In short: as §1

[9] = tested on: NCI-H1650
In short: as §1

[10] = tested on: NCI-H1651
In short: as §1

[11] = tested on: NCI-H1915
In short: as §1

[12] = tested on: NCI-H1944
In short: as §1

[13] = tested on: NCI-H2023
In short: as §1

[14] = tested on: NCI-H2087
In short: as §1

[15] = tested on: NCI-H441
In short: as §1

[16] = tested on: NCI-H460
In short: as §1

[17] = tested on: NCI-H520
In short: as §1

[18] = tested on: NCI-H596
In short: as §1

[19] = tested on: NCI-H650
In short: as §1

[20] = tested on: NCI-H661
In short: as §1

[21] = tested on: NCI-H727
In short: as §1

[22] = tested on: PC-3 [JPC-3]
In short: as §1

In the case of `Oc1nc(-c2ccc(C(F)(F)F)cc2)nc2c1CSCC2` [XAV939] + COc1cc2c(Oc3ccc(NC(=O)C4(C(=O)Nc5ccc(F)cc5)CC4)cc3F)ccnc2cc1OCCCN1CCOCC1 [Foretinib] (partner 0.25 µM), the relative viability ([1]; first compound 0.08 µM) was 0.88, the relative viability ([1]; first compound 0.253 µM) was 0.705 and the relative viability ([1]; first compound 0.8 µM) was 0.861. The relative viability ([1]; first compound 2.53 µM) was 0.746, the relative viability ([2]; first compound 0.08 µM) was 1.26 and the relative viability ([2]; first compound 0.253 µM) was 1.07. The relative viability ([2]; first compound 0.8 µM) was 1.04, the relative viability ([2]; first compound 2.53 µM) was 0.862 and the relative viability ([3]; first compound 0.08 µM) was 1.16. It also gave a relative viability ([3]; first compound 0.253 µM) of 0.732, a relative viability ([3]; first compound 0.8 µM) of 0.935 and a relative viability ([3]; first compound 2.53 µM) of 0.635. For the same molecule, the relative viability ([4]; first compound 0.08 µM) was 0.71, the relative viability ([4]; first compound 0.253 µM) was 0.631 and the relative viability ([4]; first compound 0.8 µM) was 0.577. For the same molecule, the relative viability ([4]; first compound 2.53 µM) was 0.546, the relative viability ([5]; first compound 0.08 µM) was 1.06 and the relative viability ([5]; first compound 0.253 µM) was 1.06. The relative viability ([5]; first compound 0.8 µM) was 1.15, the relative viability ([5]; first compound 2.53 µM) was 1.09 and the relative viability ([6]; first compound 0.08 µM) was 0.845. For the same molecule, the relative viability ([6]; first compound 0.253 µM) was 0.825, the relative viability ([6]; first compound 0.8 µM) was 0.803 and the relative viability ([6]; first compound 2.53 µM) was 0.851. It also gave a relative viability ([7]; first compound 0.08 µM) of 1, a relative viability ([7]; first compound 0.253 µM) of 0.854 and a relative viability ([7]; first compound 0.8 µM) of 0.911. The relative viability ([7]; first compound 2.53 µM) was 0.843, the relative viability ([8]; first compound 0.08 µM) was 0.919 and the relative viability ([8]; first compound 0.253 µM) was 0.796. It also gave a relative viability ([8]; first compound 0.8 µM) of 0.897, a relative viability ([8]; first compound 2.53 µM) of 0.936 and a relative viability ([9]; first compound 0.08 µM) of 1.16. For the same molecule, the relative viability ([9]; first compound 0.253 µM) was 1.25, the relative viability ([9]; first compound 0.8 µM) was 1.09 and the relative viability ([9]; first compound 2.53 µM) was 0.625. For the same molecule, the relative viability ([10]; first compound 0.08 µM) was 0.786, the relative viability ([10]; first compound 0.253 µM) was 0.705 and the relative viability ([10]; first compound 0.8 µM) was 0.826. For the same molecule, the relative viability ([10]; first compound 2.53 µM) was 0.768, the relative viability ([11]; first compound 0.08 µM) was 1.18 and the relative viability ([11]; first compound 0.253 µM) was 1.11. It also gave a relative viability ([11]; first compound 0.8 µM) of 1.08, a relative viability ([11]; first compound 2.53 µM) of 1.03 and a relative viability ([12]; first compound 0.08 µM) of 0.942. It also gave a relative viability ([12]; first compound 0.253 µM) of 0.842, a relative viability ([12]; first compound 0.8 µM) of 0.814 and a relative viability ([12]; first compound 2.53 µM) of 0.704. The relative viability ([13]; first compound 0.08 µM) was 0.847, the relative viability ([13]; first compound 0.253 µM) was 0.756 and the relative viability ([13]; first compound 0.8 µM) was 0.659. It also gave a relative viability ([13]; first compound 2.53 µM) of 0.514, a relative viability ([14]; first compound 0.08 µM) of 1.04 and a relative viability ([14]; first compound 0.253 µM) of 1.03. For the same molecule, the relative viability ([14]; first compound 0.8 µM) was 1.02, the relative viability ([14]; first compound 2.53 µM) was 0.677 and the relative viability ([15]; first compound 0.08 µM) was 1.15. The relative viability ([15]; first compound 0.253 µM) was 0.891, the relative viability ([15]; first compound 0.8 µM) was 1.19 and the relative viability ([15]; first compound 2.53 µM) was 1.02. It also gave a relative viability ([16]; first compound 0.08 µM) of 1.01, a relative viability ([16]; first compound 0.253 µM) of 0.926 and a relative viability ([16]; first compound 0.8 µM) of 0.999. It also gave a relative viability ([16]; first compound 2.53 µM) of 0.922, a relative viability ([17]; first compound 0.08 µM) of 0.781 and a relative viability ([17]; first compound 0.253 µM) of 0.694. For the same molecule, the relative viability ([17]; first compound 0.8 µM) was 0.677, the relative viability ([17]; first compound 2.53 µM) was 0.626 and the relative viability ([18]; first compound 0.08 µM) was 0.814. For the same molecule, the relative viability ([18]; first compound 0.253 µM) was 0.874, the relative viability ([18]; first compound 0.8 µM) was 0.84 and the relative viability ([18]; first compound 2.53 µM) was 0.797. It also gave a relative viability ([19]; first compound 0.08 µM) of 1.16, a relative viability ([19]; first compound 0.253 µM) of 0.991 and a relative viability ([19]; first compound 0.8 µM) of 1.09. For the same molecule, the relative viability ([19]; first compound 2.53 µM) was 0.857, the relative viability ([20]; first compound 0.08 µM) was 1.01 and the relative viability ([20]; first compound 0.253 µM) was 0.991. For the same molecule, the relative viability ([20]; first compound 0.8 µM) was 0.993, the relative viability ([20]; first compound 2.53 µM) was 0.929 and the relative viability ([21]; first compound 0.08 µM) was 0.997. The relative viability ([21]; first compound 0.253 µM) was 0.774, the relative viability ([21]; first compound 0.8 µM) was 0.821 and the relative viability ([21]; first compound 2.53 µM) was 0.928. The relative viability ([22]; first compound 0.08 µM) was 1.03, the relative viability ([22]; first compound 0.253 µM) was 0.854 and the relative viability ([22]; first compound 0.8 µM) was 1.02. It also gave a relative viability ([22]; first compound 2.53 µM) of 0.951.

Source: the supplement of paper PMC10307832
